From patent US20060135773A1, “Trisubstituted nitrogen modulators of tyrosine phosphatases” (priority 2004, published 2006) come the findings set out here.

In general, IC50 refers to the concentration needed to halve the response being measured.

For this test, the target named is T1, PTP-1B (Homo sapiens, UniProt P18031).
T1 construct: PTP-1B (purified, 1 mg/mL) as a 1:250 dilution
T1 sequence (P18031 1-321 limits assumed): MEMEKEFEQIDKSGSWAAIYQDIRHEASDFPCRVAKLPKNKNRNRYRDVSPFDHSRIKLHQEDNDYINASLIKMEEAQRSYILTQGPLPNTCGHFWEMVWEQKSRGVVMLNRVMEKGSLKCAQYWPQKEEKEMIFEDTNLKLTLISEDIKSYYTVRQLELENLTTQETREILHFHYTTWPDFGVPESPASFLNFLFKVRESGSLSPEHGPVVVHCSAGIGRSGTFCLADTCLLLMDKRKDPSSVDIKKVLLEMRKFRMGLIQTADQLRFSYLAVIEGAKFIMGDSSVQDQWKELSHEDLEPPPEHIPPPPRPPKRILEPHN
The test can be described thus: pNPP tyrosine phosphatase inhibition assay, PTP-1B. Conditions: pNPP assay, PTP-1B; read-out: Activity Class (IC50 ranges). Type of test: biochemical. As to the method:
The compounds provided herein are evaluated for biological activity as inhibitors of PTP-1B using, for example, a pNPP assay can be used to screen compounds for tyrosine phosphatase inhibitory activity as described in the Examples.
A 5× stock of pNPP (p-nitrophenol phosphate) substrate is prepared as 50 mM pNPP in assay buffer. Various tyrosine phosphatase solutions can be prepared as follows: • PTP-1B (purified, 1 mg/mL) as a 1:250 dilution (to a final concentration of 4:g/mL); • TC-PTP (NEB, 1000 units in 100:L) as a 1:50 dilution (to a final concentration of 2U/10:L (4:g/mL)); • CD45 (Calbiochem, 20:g, 400 units in 100:L) as a 1:50 dilution (to a final concentration of 0.8U/10:L (4:g/mL)); • LAR (NEB, 1000 units in 200:L) as a 1:75 dilution (to a final concentration of 0.7U/10:L (4:g/mL)); and • PTP-β (UBI, #14-350, 10,000 units, 40:g/571:L) as a 1:17.5 dilution (to a final concentration of 10U/10:L (4:g/mL));
The compound to be tested is prepared as 1:16.7 and 1:50 dilutions from stock in a total volume of […] DMSO to give final concentrations of 626 and 200:M. The reaction mixtures are prepared in a 96-well microtiter plate (on ice) as 55:L assay buffer, 5:L of the diluted compound (to a final concentration of 31.3 and 10:M), 20:L of the pNPP substrate solution (to a final concentration of 10 mM) and 20:L PTPase in assay buffer. The reactants are mixed well, the plate placed in a water bath at 30° C. and incubated for 10 minutes. The reaction is then terminated by adding 100:L of 2M K2CO3 per well, and the absorbance is measured at 405 nm by conventional means.
Unless otherwise indicated, this assay was used to determine activity for the selected compounds whose activity is provided in Table 1.
Take `O=P(O)(O)C(F)(F)c1ccc(CN(Cc2ccc(C(F)(F)P(=O)(O)O)cc2)S(=O)(=O)c2ccc3ccccc3c2)cc1` [Compound 71, [(4-{[[4-(Difluoro-phosphono-methyl)-benzyl]-(naphthalene-2-sulfonyl)-amino]-methyl}-phenyl)-difluoro-methyl]-phosphonic acid]: the concentration for half-maximal inhibition (IC50) was in the range of 250 to 499 nM.

With `COc1ccc(S(=O)(=O)N(Cc2ccc(C(=O)C(=O)O)cc2)Cc2ccc(S(C)(=O)=O)cc2)c(OC)c1` [Compound 111, (4-{[(2,4-Dimethoxy-benzenesulfonyl)-(4-methanesulfonyl-benzyl)-amino]-methyl}-phenyl)-oxo-acetic acid], the IC50 was above 25000 nM.

As for `O=P(O)(O)C(F)(F)c1ccc(CN(Cc2ccc(C(F)(F)P(=O)(O)O)cc2)S(=O)(=O)c2ccc(Oc3ccccc3)cc2)cc1` [Compound 70, [(4-{[[4-(Difluoro-phosphono-methyl)-benzyl]-(4-phenoxy-benzenesulfonyl)-amino]-methyl}-phenyl)-difluoro-methyl]-phosphonic acid], the IC50 lay within 250 to 499 nM.

`COc1ccccc1S(=O)(=O)N(Cc1ccc(OCC(=O)O)c(C(=O)O)c1)Cc1ccccc1-c1ccccc1` [Compound 224, 5-{[Biphenyl-2-ylmethyl-(2-methoxy-benzenesulfonyl)-amino]-methyl}-2-carboxymethoxy-benzoic acid]: the IC50 was above 25000 nM.

On to `COc1ccccc1S(=O)(=O)N(Cc1ccc(-c2ccc(S(C)(=O)=O)cc2)cc1)Cc1ccc(C(F)(F)P(=O)(O)O)c(Cl)c1` [Compound 147, [(2-Chloro-4-{[(4′-methanesulfonyl-biphenyl-4-ylmethyl)-(2-methoxy-benzenesulfonyl)-amino]-methyl}-phenyl)-difluoro-methyl]-phosphonic acid], for which the IC50 was in the range of 100 to 249 nM.

In the case of `COc1ccccc1S(=O)(=O)N(Cc1ccc(C#N)cc1)Cc1ccc(NC(=O)C(=O)O)cc1` [Compound 129, N-(4-(N-oxalylamino]benzyl)-N-(4-cyanobenzyl)-(2-methoxy)benzenesulfonamide], the half-maximal inhibitory concentration (IC50) was above 25000 nM.

With `COc1ccccc1S(=O)(=O)N(Cc1ccc(C#N)cc1)Cc1ccc(C=CC(=O)O)cc1` [Compound 124, 3-{4-[N-(4-cyanobenzyl)-N-(2-methoxy-benzenesulfonyl)aminomethyl]-phenyl}-acrylic acid], the IC50 is above 25000 nM.

Turning to `O=P(O)(O)C(F)(F)c1ccc(CN(Cc2ccc(C(F)(F)P(=O)(O)O)cc2)S(=O)(=O)c2cccc(-c3ccccc3)c2)cc1` [Compound 74, {[4-({(Biphenyl-3-sulfonyl)-[4-(difluoro-phosphono-methyl)-benzyl]-amino}-methyl)-phenyl]-difluoro-methyl}-phosphonic acid], the concentration for half-maximal inhibition (IC50) is 250 to 499 nM.

`COc1ccccc1S(=O)(=O)N(Cc1ccc(OCc2nn[nH]n2)cc1)Cc1ccc(S(C)(=O)=O)cc1` [Compound 128, N-(4-Methanesulfonyl-benzyl)-2-methoxy-N-[4-(2H-tetrazol-5-ylmethoxy)-benzyl]-benzenesulfonamide]: the IC50 is above 25000 nM.

On to `COc1ccccc1S(=O)(=O)N(Cc1ccc(S(C)(=O)=O)cc1)Cc1ccc(C(F)(F)P(=O)(O)O)c(Cl)c1` [Compound 137, [(2-Chloro-4-{[(4-methanesulfonyl-benzyl)-(2-methoxy-benzenesulfonyl)-amino]-methyl}-phenyl)-difluoro-methyl]-phosphonic acid], for which the IC50 fell in the range of 250 to 499 nM.

On to `O=C(O)c1ccc(CN(Cc2ccc(C(=O)O)cc2Br)S(=O)(=O)c2ccccc2)cc1` [Compound 80, 4-([Benzenesulfonyl-(2-bromo-4-carboxybenzyl)-amino]-methyl)-benzoic acid], for which the half-inhibitory concentration (IC50) was above 25000 nM.

`O=P(O)(O)C(F)(F)c1ccc(CN(Cc2ccc(C(F)(F)P(=O)(O)O)cc2)S(=O)(=O)C=Cc2ccccc2)cc1` [Compound 75, [(4-{[[4-(Difluoro-phosphono-methyl)-benzyl]-(2-phenyl-ethenesulfonyl)-amino]-methyl}-phenyl)-difluoro-methyl]-phosphonic acid]: the 50% inhibitory concentration (IC50) was in the range of 250 to 499 nM.

Regarding `O=P(O)(O)C(F)(F)c1ccc(CN(Cc2ccc(Cl)c(Cl)c2)S(=O)(=O)c2ccccc2)cc1Br` [Compound 68, [(4-{[Benzenesulfonyl-(3,4-dichloro-benzyl)-amino]-methyl}-2-bromo-phenyl)-difluoro-methyl]-phosphonic acid], the IC50 is 250 to 499 nM.

In the case of “Methyl 2-(3-{4-[({[4-(difluorophosphonomethyl)-3-chlorophenyl]methyl}[(2-methoxyphenyl)sulfonyl]amino)methyl]phenyl}phenyl)acetate [Compound 191]”, the 50% inhibitory concentration (IC50) was below 99 nM.

On to `COc1ccccc1S(=O)(=O)N(Cc1ccc(C(=O)C(=O)O)cc1)Cc1ccc(S(C)(=O)=O)cc1` [Compound 125, (4-{[(4-Methanesulfonyl-benzyl)-(2-methoxy-benzenesulfonyl)-amino]-methyl}-phenyl)-oxo-acetic acid], for which the half-inhibitory concentration (IC50) was above 25000 nM.

Consider `O=P(O)(O)C(F)(F)c1ccc(CN(Cc2ccccc2-c2ccccc2)S(=O)(=O)c2cnccc2I)cc1Cl` [Compound 230, [(4-{[Biphenyl-2-ylmethyl-(4-iodo-pyridine-3-sulfonyl)-amino]-methyl}-2-chloro-phenyl)-difluoro-methyl]-phosphonic acid], for which the half-inhibitory concentration (IC50) lay within 100 to 249 nM.

For the molecule `COc1ccccc1S(=O)(=O)N(CCc1ccc(-c2cccc(C(=O)O)c2)cc1)Cc1ccc(C(F)(F)P(=O)(O)O)c(Cl)c1` [Compound 188, 4′-{2-[[3-Chloro-4-(difluoro-phosphono-methyl)-benzyl]-(2-methoxy-benzenesulfonyl)-amino]-ethyl}-biphenyl-3-carboxylic acid], the concentration for half-maximal inhibition (IC50) was in the range of 250 to 499 nM.

For “2,2-Dimethyl-propionic acid [(2-chloro-4-{[(3,4-dichloro-benzyl)-(2-methoxy-benzenesulfonyl)-amino]-methyl}-phenyl)-difluoro-methyl]-hydroxy-phosphinoyloxymethyl ester [Compound 150]”, the IC50 was in the range of 250 to 499 nM.

Regarding `Cc1cc(C=C(C#N)C(=O)Nc2ccc3ccccc3c2)c(C)n1-c1ccc(C(=O)O)cc1` [Compound 58, 4-{3-[2-Cyano-2-(naphthalen-2-ylcarbamoyl)-vinyl]-2,5-dimethyl-pyrrol-1-yl}-benzoic acid], the 50% inhibitory concentration (IC50) was above 25000 nM.

Regarding `COc1ccccc1S(=O)(=O)N(Cc1ccc(-c2ccc(C#N)cc2)cc1)Cc1ccc(C(F)(F)P(=O)(O)O)c(Cl)c1` [Compound 155, [(2-Chloro-4-{[(4′-cyano-biphenyl-4-ylmethyl)-(2-methoxy-benzenesulfonyl)-amino]-methyl}-phenyl)-difluoro-methyl]-phosphonic acid], the IC50 lay in the range of 100 to 249 nM.

With `COc1ccccc1S(=O)(=O)N(Cc1ccc(OCc2ccccc2)cc1)Cc1ccc(C(F)(F)P(=O)(O)O)c(Cl)c1` [Compound 172, [(4-{[(4-Benzyloxy-benzyl)-(2-methoxy-benzenesulfonyl)-amino]-methyl}-2-chloro-phenyl)-difluoro-methyl]-phosphonic acid], the IC50 was 250 to 499 nM.

Regarding `CCOC(=O)[C@H](C)NP(=O)(O)C(F)(F)c1ccc(CN(Cc2ccc(-c3cccc(C#N)c3)cc2)S(=O)(=O)c2ccccc2OC)cc1Cl` [Compound 219, [S]-N-[(2-Chloro-4-{[(3′-cyano-biphenyl-4-ylmethyl)-(2-methoxy-benzenesulfonyl)-amino]-methyl}-phenyl)-difluoro-methyl]-phosphonyl-(ethyl alaninate)], the half-maximal inhibitory concentration (IC50) lay within 250 to 499 nM.
